Results reported in ChEMBL document CHEMBL1144079, “7-Hydroxyceratinamine, a new cyanoformamide-containing metabolite from a sponge, Aplysinella sp” (J Nat Prod, 1999).
Calls of active or inactive are those of the source. The calls are words filed in the database; no cut-off is given here.

Test system: U-937
Test: Induction of apoptosis in human U937 cells
Type: functional, cell-based

Row | SMILES | Activity
1 | C[N+](C)(C)CCc1cc(Br)c(O)c(Br)c1 | inactive
2 | N#CC(=O)NCCCOc1c(Br)cc(C(O)CN)cc1Br (centres undefined) | inactive
3 | NCCCOc1c(Br)cc(CCN)cc1Br | inactive
4 | N#CC(=O)NCCCOc1c(Br)cc(CCN)cc1Br | inactive
